Patent publication US7452894B2, “Purine derivatives as purinergic receptor antagonists” (Vernalis Research Limited, priority 2001, dated 2008)
pKi: −log10 of the molar value. Read-outs that look alike come from different tables or passages of the source.

Legend:
[1] = target: human adenosine A2A receptors (Homo sapiens, UniProt P29274); experiment: Binding affinities at hA2A receptors, displacement of [3H]-CGS 21680
[2] = cited from earlier work
adenosine A2A receptor = settings: cited from earlier work
[3] = human adenosine A2A receptor, radioligand [3H]-CGS 21680

Sequence of human adenosine A2A receptors (P29274 whole entry): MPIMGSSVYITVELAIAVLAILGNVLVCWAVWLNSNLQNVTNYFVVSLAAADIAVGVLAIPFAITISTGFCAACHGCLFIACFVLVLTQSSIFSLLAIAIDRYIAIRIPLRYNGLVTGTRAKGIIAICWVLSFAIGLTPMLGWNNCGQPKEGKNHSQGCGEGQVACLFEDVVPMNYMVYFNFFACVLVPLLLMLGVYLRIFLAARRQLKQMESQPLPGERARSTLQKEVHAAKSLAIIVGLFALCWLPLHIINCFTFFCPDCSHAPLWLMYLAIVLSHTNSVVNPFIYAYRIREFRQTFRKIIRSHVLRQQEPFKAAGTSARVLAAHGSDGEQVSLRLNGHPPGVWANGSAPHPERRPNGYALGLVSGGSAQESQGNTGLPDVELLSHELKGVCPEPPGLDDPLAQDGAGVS

Structure (SMILES) | melting point | pKi [1] | also measured
Cc1ccc(Cn2cnc3c(-c4ccc(C)o4)nc(N)nc32)cc1 [Example 208, 9-(4-Methylbenzyl)-6-(5-methyl-2-furyl)-9H-purine2-amine] | 210 to 220 °C (dec.) | 8.22 | –
Nc1nc(-c2ccco2)c2ncn(CC(=O)Nc3cccc(Cl)c3)c2n1 [Example 141, 2-Amino-N-(3-chlorophenyl)-6-(2-furyl)-9H-purine-9-acetamide] | 278 °C (dec.) | 7.44 | –
Cn1c(=O)c2[nH]cnc2n(C)c1=O [theophylline] | – | – | mean objective disability scores ([2]; 15 Parkinsonian patients, up to 12 weeks, 150 mg/day oral): significant improvements; serum theophylline levels ([2]; slow release oral preparation 150 mg/day, after one week, Parkinsonian patients): 4.44 mg/L
Nc1nc(-c2ccco2)c2ncn(S(=O)(=O)c3ccc(Br)cc3)c2n1 [Example 162, 9-(4-Bromophenyl)sulphonyl-6-(2-furyl)-9H-purine-2-amine] | – | 8.10 | –
Cc1cccc(CNC(=O)n2cnc3c(-c4ccco4)nc(N)nc32)c1 [Example 47, 2-Amino-6-(2-furyl)-N-(3-methylbenzyl)-9H-purine-9-carboxamide] | – | – | pKi [1, 3]: 9.00
CCCn1c(=O)c2c(nc(/C=C/c3ccc(OC)c(OC)c3)n2C)n(CCC)c1=O [KF 17837, (E)-8-(3,4-dimethoxystyryl)-1,3-dipropyl-7-methylxanthine] | – | – | anticataleptic effects of a subthreshold dose of L-DOPA plus benserazide (adenosine A2A receptor; in vivo): potentiated; catalepsy induced by haloperidol and reserpine (adenosine A2A receptor; in vivo): reduced; cataleptic responses induced by intracerebroventricular CGS 21680 (adenosine A2A receptor; oral administration): significantly ameliorated
Nc1nc(-c2ccco2)c2ncn(S(=O)(=O)/C=C/c3ccccc3)c2n1 [Example 185, 6-(2-Furyl)-9-(2-phenylethenyl)sulphonyl-9H-purine-2-amine] | – | 8.15 | –
Nc1nc(-c2ccco2)c2ncn(C(=O)NCCc3ccccc3)c2n1 [Example 92, 2-Amino-6-(2-furyl)-N-(2-phenylethyl)-9H-purine-9-carboxamide] | – | – | pKi [1, 3]: 8.22
Cn1cnc(S(=O)(=O)Nc2ccccc2Cn2cnc3c(-c4ccco4)nc(N)nc32)c1 [Example 235, 6-(2-Furyl)-9-(2-(1-methyl-1H-imidazol-4-ylsulphonylamino)benzyl)-9H-purine-2-amine] | 253.1 to 257.1 °C | 8.40 | –
Nc1nc(-c2ccco2)c2ncn(C(=O)NCc3ccccc3)c2n1 [Example 26, 2-Amino-N-benzyl-6-(2-furyl)-9H-purine-9-carboxamide] | – | – | pKi [1, 3]: 9.00
Nc1nc(-c2ccco2)c2ncn(C(=O)NCc3ccccc3Cl)c2n1 [Example 39, 2-Amino-N-(2-chlorobenzyl)-6-(2-furyl)-9H-purine-9-carboxamide] | – | – | pKi [1, 3]: 9.00
C[C@H](NC(=O)n1cnc2c(-c3ccco3)nc(N)nc21)c1ccccc1 [Example 45, (1S)-2-Amino-6-(2-furyl)-N-(1-phenyethyl)-9H-purine-9-carboxamide] | – | – | pKi [1, 3]: 8.70
Nc1nc(-c2ccco2)c2ncn(C(=O)NCc3cccs3)c2n1 [Example 202, 2-Amino-6-(2-furyl)-N-(2-thienylmethyl)-9H-purine-9-carboxamide] | – | – | pKi [1, 3]: 9.00
CSc1nc(-c2ccco2)c2nc[nH]c2n1 [Example 13, 6-(2-Furyl)-2-methylthio-1H-purine] | 239.5 to 239.9 °C | 7.92 | –

Now from value to compound, other results behind:

melting point | pKi [1] | Structure (SMILES) | also measured
161.7 °C (dec.) | 9.00 | Nc1nc(-c2ccco2)c2ncn(C(=O)OCc3ccccc3)c2n1 [Example 106, Benzyl 2-amino-6-(2-furyl)-9H-purine-9-carboxylate] | –
210.9 to 211.5 °C | 8.15 | Nc1nc(-c2ccco2)c2ncn(Cc3ccc(Cl)s3)c2n1 [Example 240, 9-(5-Chloro-2-thienylmethyl)-6-(2-furyl)-9H-purine-2-amine] | –
– | 8.05 | Cc1ccc(Cn2cnc3c(-c4ccco4)nc(N)nc32)cc1 [Example 127, 6-(2-Furyl)-9-(4-methylbenzyl)-9H-purine-2-amine] | –
– | 7.46 | Cc1cccc(Cn2cnc3c(-c4ccco4)nc(N)nc32)n1 [Example 212, 6-(2-Furyl)-9-(6-methyl-2-pyridyl)methyl-9H-purine-2-amine] | –
– | 7.96 | Nc1nc(-c2ccco2)c2ncn(Cc3cc([N+](=O)[O-])ccc3F)c2n1 [Example 259, 9-(2-Fluoro-5-nitrobenzyl)-6-(2-furyl)-9H-purine-2-amine] | –
– | 7.64 | CN(C)c1nc(-c2ccco2)c2nc[nH]c2n1 [Example 3, N,N-Dimethyl-6-(2-furyl)-1H-purine-2-amine] | –
– | 7.68 | Nc1nc(-c2ccco2)c2ncn(CCCc3cccnc3)c2n1 [Example 189, 6-(2-Furyl)-9-(3-(3-pyridyl)propyl)-9H-purine-2-amine] | –
– | 8.40 | Nc1nc(-c2ccco2)c2ncn(C(=O)NCc3ccc(Cl)cc3Cl)c2n1 [Example 93, 2-Amino-N-(2,4-dichlorobenzyl)-6-(2-furyl)-9H-purine-9-carboxamide] | –
259.2 °C | 8.15 | Cc1csc(-c2nc(N)nc3c2ncn3Cc2ccccc2F)n1 [Example 244, 9-(2-Fluorobenzyl)-6-(4-methyl-2-thiazolyl)-9H-purine-2-amine] | –
